In US20120148685A1, “METHODS AND COMPOSITIONS FOR TREATING INSULIN RESISTANCE, DIABETES MELLITUS TYPE 2, METABOLIC SYNDROME AND RELATED DISORDERS” (Engergy4Life AG, priority 2009, published 2012):
Marks after values point to notes of the source that are not given here.

Columns and labels:
[1] = Organ weights of the rats; assay type: in vivo; settings: obese (fa/fa) Zucker rats, supplemented diet fed 4 wk, means ± SD (n = 12)
Protocol: (§1) All rats were kept individually in Macrolon cages in a room maintained at 22±1° C. and 50-60% relative humidity with lighting from 06.00 to 18.00 hours. All experimental procedures described followed established guidelines for the care and handling of laboratory animals and were approved by the local Animal Care and Use Committee.
(§2) Five different diets were used differing in their supplementation. […] Feed was administered ad libitum, and feed intake was recorded weekly. Experimental diets were fed for 4 weeks. Water was available ad libitum from nipple drinkers during the whole experiment.

[2] = Feed intake, body weight development and feed conversion ratio of Zucker rats fed supplemented diets; assay type: in vivo
From the text: Zucker rats are an established model of human early-onset, hyperplastic-hypertrophic obesity and insulin resistance as well as human non-insulin dependent diabetes mellitus.
(§3) A total of 60 male, 8-10 week old, obese (fa/fa) Zucker rats (Crl:ZUC-Leprfa; Charles River, France) with an initial body weight of 358±24 (mean±SD) g were randomly assigned to five groups of twelve rats each. In addition, 12 male, 8-10 week old, heterozygous lean (fa/+) Zucker rats with an initial body weight of 271±10 g were used as a lean control group. All rats were kept individually in Macrolon cages in a room maintained at 22±1° C. and 50-60% relative humidity with lighting from 06.00 to 18.00 hours. All experimental procedures described followed established guidelines for the care and handling of laboratory animals and were approved by the local Animal Care and Use Committee.
(§4) The rats were fed semi-purified diets which were composed according to the recommendations of the American Institute of Nutrition (AIN)-93G. Five different diets were used differing in their supplementation. […] Diets were prepared by mixing the dry components and subsequent pelleting with a standard pelleting device (Kahl Laborpressanlage Typ 14-175; Reinbek, Germany). Feed was administered ad libitum, and feed intake was recorded weekly. Experimental diets were fed for 4 weeks. Water was available ad libitum from nipple drinkers during the whole experiment.

[3] = Plasma and lipoprotein lipid concentrations (triacylglycerol, cholesterol; enzymatic kits); assay type: in vivo, Zucker rats; settings: for Cholesterol, HDL / Cholesterol, Plasma / Cholesterol, VLDL + LDL / Triacylglycerols, Plasma / Triacylglycerols, VLDL + LDL: obese (fa/fa) Zucker rats, supplemented diet 4 wk, fasted, means ± SD (n = 12); for TAG concentration in plasma compared with the niacin+DHA+carnitine group / TAG concentrations in plasma compared with the control group / Cholesterol in the VLDL+LDL fraction compared with the obese control group / TAG concentration in the VLDL+LDL fraction compared with the obese control group: within the obese rats; for TAG concentration in plasma compared with the niacin+DHA+carnitine group / TAG concentrations in plasma compared with the control group: P<0.05; for Cholesterol in the VLDL+LDL fraction compared with the obese control group / TAG concentration in the VLDL+LDL fraction compared with the obese control group: P<0.05 where different
Protocol: as §3, §4
(§5) The rats were decapitated under CO2 anesthesia in the fasted state. Whole blood was collected into EDTA polyethylene tubes (Sarstedt, Nürnbrecht, Germany). Plasma was separated from whole blood by centrifugation (1,100×g; 10 min) at 4° C. Lipoproteins [VLDL, LDL and high-density lipoproteins (HDL)] were separated by step-wise ultracentrifugation (900,000×g, 1.5 h, 4° C.; Mikro-Ultrazentrifuge, Sorvall Products, Bad Homburg, Germany). All samples were stored at −20° C. pending analysis.
Triacylglycerol and cholesterol concentrations in plasma and lipoproteins were determined using enzymatic reagent kits from Biocon (Vöhl-Marienhagen, Germany).

leptin = assay: Leptin in plasma (rat ELISA); assay type: in vivo, Zucker rats; settings: for Leptin in plasma: obese (fa/fa) Zucker rats, supplemented diet 4 wk, fasted, means ± SD (n = 12); for Leptin concentrations in plasma compared with the obese control group: within the obese rats, in words, P<0.05 where different
Protocol: as §3, §4, §5
(§6) Concentrations of leptin in plasma was determined by rat ELISA kits from BioVendor (Heidelberg, Germany). Concentration of high molecular weight adiponectin was determined by a rat ELISA kit from Shibayagi (Ishihara, Shibukawa, Gunma, Japan).

[4] = Fasting glucose concentration in plasma; assay type: in vivo, Zucker rats; settings: for Glucose in plasma: obese (fa/fa) Zucker rats, supplemented diet 4 wk, fasted, means ± SD (n = 12); for Fasting glucose concentration compared with the obese control group: within the obese rats, in words, P<0.05 where different
Protocol: as §3, §4, §5
Glucose concentration in plasma was determined by an enzymatic reagent kit from Analyticon Biotechnologies (Lichtenfels, Germany).

[5] = system: high molecular weight adiponectin; assay: High molecular weight adiponectin in plasma (rat ELISA); assay type: in vivo; settings: obese (fa/fa) Zucker rats, supplemented diet 4 wk, fasted, means ± SD (n = 12)
Protocol: as §3, §4, §5, §6

[6] = Non-esterified fatty acids (NEFA) in plasma; assay type: in vivo, Zucker rats; settings: for NEFA in plasma: obese (fa/fa) Zucker rats, supplemented diet 4 wk, fasted, means ± SD (n = 12); for NEFA concentrations in plasma compared with the obese control group: within the obese rats, in words, P<0.05
Protocol: as §3, §4, §5
NEFA concentrations in plasma were determined using the NEFA kit from Wako Chemicals (Neuss, Germany).

[7] = system: fatty acid synthase (FAS); assay: Relative mRNA concentration in liver, lipogenesis: FAS; assay type: in vivo, Zucker rats
Protocol: as §1, §2

acyl-CoA oxidase (ACO) = assay: Relative mRNA concentration in liver, fatty acid oxidation: ACO; assay type: in vivo; settings: liver of obese Zucker rats, diet 4 wk, obese control = 1.00, means ± SD (n = 12)
Protocol: as §1, §2

[8] = system: liver-type carnitine-palmitoyltransferase (L-CPT) I; assay: Relative mRNA concentration in liver, fatty acid oxidation: L-CPT I; assay type: in vivo; settings: liver of obese Zucker rats, diet 4 wk, obese control = 1.00, means ± SD (n = 12)
Protocol: as §1, §2

scavenger receptor CD36 = assay: Relative mRNA concentration in liver, fatty acid uptake: CD36; assay type: in vivo; settings: liver of obese Zucker rats, diet 4 wk, obese control = 1.00, means ± SD (n = 12)
Protocol: as §1, §2

lipoprotein lipase (LPL) = assay: Relative mRNA concentration in liver, fatty acid uptake: LPL; assay type: in vivo; settings: liver of obese Zucker rats, diet 4 wk, obese control = 1.00, means ± SD (n = 12)
Protocol: as §1, §2

[9] = system: fatty acid transport protein (FATP); assay: Relative mRNA concentration in liver, fatty acid uptake: FATP; assay type: in vivo; settings: liver of obese Zucker rats, diet 4 wk, obese control = 1.00, means ± SD (n = 12)
Protocol: as §1, §2

[10] = system: sterol regulatory element-binding protein (SREBP)-1c; assay: Relative mRNA concentration in liver, lipogenesis: SREBP-1c; assay type: in vivo, Zucker rats
Protocol: as §1, §2

[11] = system: stearoyl-CoA desaturase (SCD); assay: Relative mRNA concentration in liver, lipogenesis: SCD; assay type: in vivo; settings: liver of obese Zucker rats, diet 4 wk, obese control = 1.00, means ± SD (n = 12)
Protocol: as §1, §2

[12] = system: fatty acid binding protein (FABP); assay: Relative mRNA concentration in liver, fatty acid uptake: FABP; assay type: in vivo, Zucker rats
Protocol: as §1, §2

[13] = obese (fa/fa) Zucker rats, supplemented diet fed 4 wk, means ± SD (n = 12)
[14] = within the obese rats, in words, P<0.05 where different
[15] = liver of obese Zucker rats, diet 4 wk, obese control = 1.00, means ± SD (n = 12)

For `O=C(O)c1cccnc1` [niacin, pyridine-3-carboxylic acid, reference compound], the “Absolute organ weights: Kidney” value [1] was 2.57 ± 0.49 g, the “Daily body weight gain” value [2, 13] was 4.95 ± 0.73 ^a g and the Feed intake [2, 13] was 26.2 ± 2.3 ^ab g/d. For the same molecule, the Final body weight [2, 13] was 500 ± 43 ^a g, the “Total body weight gain” value [2, 13] was 141 ± 19 ^a g and the “Daily feed intake compared with the obese control group” value [2, 14] was “did not differ”. The “Lowering of cholesterol in plasma and VLDL/LDL” value ([3]; conclusions, obese diabetic rats, in words) was “significant effect on lowering”, the “Cholesterol, HDL” value [3] was 4.54 ± 0.54 ^a mmol/L and the “Cholesterol, Plasma” value [3] was 6.91 ± 1.13 ^b mmol/L. The “Cholesterol, VLDL + LDL” value [3] was 2.70 ± 0.27 ^c mmol/L, the “Triacylglycerols, Plasma” value [3] was 3.17 ± 0.40 ^d mmol/L and the “Triacylglycerols, VLDL + LDL” value [3] was 2.08 ± 0.40 ^c mmol/L. For the same molecule, the “TAG concentration in plasma compared with the niacin+DHA+carnitine group” value ([3]; in words) was “lower”, the “TAG concentrations in plasma compared with the control group” value ([3]; in words) was “lower” and the “Cholesterol in the VLDL+LDL fraction compared with the obese control group” value ([3]; in words) was “lower”. For the same molecule, the “TAG concentration in the VLDL+LDL fraction compared with the obese control group” value ([3]; in words) was “lower”, the Leptin in plasma (leptin) was 6.17 ± 0.71 ^b ng/mL and the “Leptin concentrations in plasma compared with the obese control group” value (leptin) was “higher”. The Glucose in plasma [4] was 7.36 ± 0.64 ^b mmol/L, the “Fasting glucose concentration compared with the obese control group” value [4] was “lower” and the Adiponectin in plasma [5] was 134 ± 21 ng/mL. For the same molecule, the NEFA in plasma [6] was 2.25 ± 0.46 ^b mmol/L and the “NEFA concentrations in plasma compared with the obese control group” value [6] was “lower”.

In the case of `C[N+](C)(C)CC(O)CC(=O)[O-]` (centres unmarked) [carnitine], the “Gene expression of fatty acid synthase” value ([7]; conclusions, liver of obese diabetic rats, in words) is reported as “lowered”, the “Relative mRNA concentration, FAS” value [7, 15] is reported as 0.53 ± 0.49 ^b and the “Relative mRNA concentration of FAS in the liver compared with the obese control group” value [7, 14] is reported as “lower”. For the same molecule, the “Absolute organ weights: Heart” value [1] was 1.36 ± 0.12 g, the “Absolute organ weights: Kidney” value [1] was 2.75 ± 0.66 g and the “Absolute organ weights: Liver” value [1] was 25.0 ± 2.8 ^a g. For the same molecule, the “Relative organ weights: Heart” value [1] was 2.73 ± 0.15 ^b mg/g body weight, the “Relative organ weights: Kidney” value [1] was 5.52 ± 1.17 mg/g body weight and the “Relative organ weights: Liver” value [1] was 50.4 ± 4.4 ^a mg/g body weight. The “Daily body weight gain” value [2, 13] was 4.85 ± 0.48 ^a g, the Feed conversion ratio [2, 13] was 5.18 ± 0.63 ^bc g/g and the Feed intake [2, 13] was 25.1 ± 3.4 ^b g/d. The Final body weight [2, 13] was 496 ± 31 ^a g, the “Total body weight gain” value [2, 13] was 138 ± 13 ^a g and the “Daily feed intake compared with the obese control group” value [2, 14] was “did not differ”. The “Feed conversion ratio compared with the obese control group” value [2, 14] was “did not differ much”, the “Cholesterol, HDL” value [3] was 4.64 ± 0.50 ^a mmol/L and the “Cholesterol, Plasma” value [3] was 7.68 ± 0.92 ^ab mmol/L. The “Cholesterol, VLDL + LDL” value [3] was 3.12 ± 0.39 ^b mmol/L, the “Triacylglycerols, Plasma” value [3] was 4.41 ± 0.85 ^c mmol/L and the “Triacylglycerols, VLDL + LDL” value [3] was 2.65 ± 0.57 ^b mmol/L. For the same molecule, the “TAG concentration in plasma compared with the niacin+DHA+carnitine group” value ([3]; in words) was “lower”, the “TAG concentrations in plasma compared with the control group” value ([3]; in words) was “lower” and the “Cholesterol in the VLDL+LDL fraction compared with the obese control group” value ([3]; in words) was “did not differ”. The “TAG concentration in the VLDL+LDL fraction compared with the obese control group” value ([3]; in words) was “did not differ”, the Leptin in plasma (leptin) was 6.09 ± 1.29 ^bc ng/mL and the “Leptin concentrations in plasma compared with the obese control group” value (leptin) was “did not differ”. For the same molecule, the Glucose in plasma [4] was 7.86 ± 0.75 ^ab mmol/L, the “Fasting glucose concentration compared with the obese control group” value [4] was “did not differ” and the “Relative mRNA concentration, ACO” value (acyl-CoA oxidase (ACO)) was 1.15 ± 0.37. For the same molecule, the “Relative mRNA concentration, L-CPT I” value [8] was 1.15 ± 0.41, the Adiponectin in plasma [5] was 122 ± 12 ng/mL and the “Relative mRNA concentration, CD36” value (scavenger receptor CD36) was 0.87 ± 0.22 ^a. For the same molecule, the “Relative mRNA concentration, LPL” value (lipoprotein lipase (LPL)) was 1.04 ± 0.20, the “Relative mRNA concentration, FATP” value [9] was 0.93 ± 0.76 and the “Relative mRNA concentration, SREBP-1c” value [10, 15] was 0.78 ± 0.31 ^ab. For the same molecule, the “Relative mRNA concentration of SREBP-1c in the liver compared with the obese control group” value [10, 14] was “did not differ”, the “Relative mRNA concentration, SCD” value [11] was 0.99 ± 0.33 ^a and the NEFA in plasma [6] was 2.41 ± 0.57 ^b mmol/L. The “NEFA concentrations in plasma compared with the obese control group” value [6] was “lower”, the “Relative mRNA concentration of FABP in the liver compared with the other groups” value ([12]; in words, P<0.05 where different) was “did not differ” and the “Relative mRNA concentration, FABP” value [12, 15] was 0.83 ± 0.29 ^ab.
